Measurements published in patent US20170112866A1, “ANTI-TUMOR AGENT CONTAINING TAXANE COMPOUND, AND ANTI-TUMOR EFFECT ENHANCER” (Taiho Pharmaceutical Company Limited, priority 2014, published 2017).

Columns and labels:
[1] = mouse, in vivo
Experimental: (§1) A human gastric cancer cell line (SC-2) was transplanted to the right chest of 5 to 6-week-old BALB/cA Jcl-nu mice. After the tumor transplantation, the long diameter (mm) and the short diameter (mm) of the tumor were measured, and the tumor volume (TV) was calculated. […] Paclitaxel was administered at doses of 10, 20, and 30 mg/kg/day on Days 1 and 8.

[2] = test system: human gastric cancer cell line (SC-2); assay: Anti-tumor effect on SC-2 transplanted to nude mice (RTV, IR); assay type: in vivo; conditions: Day 29, tail vein, Day 1 and Day 8
Experimental: The FTD•TPI combination drug (a mixture of FTD and TPI at a molar ratio of 1:0.5) was prepared for administration at a dose of 150 mg/kg/day in terms of FTD. Paclitaxel (TXL, Wako Pure Chemical Industries, Ltd.) was prepared for administration at doses of 5 and 20 mg/kg/day. The FTD•TPI combination drug was orally administered on Days 1 to 14 consecutively, and paclitaxel was administered through the tail vein on Day 1 and Day 8. In the combination administration groups, the doses and administration schedules of the FTD•TPI combination drug and paclitaxel were the same as those of the corresponding monotherapy groups.
As an index of the anti-tumor effect, the TVs on Days 3, 7, 12, 15, 19, 22, 26, and 29 were calculated in each group. In accordance with the following equation, the relative tumor volume (RTV) to that on Day 0 was calculated and compared with the RTV of the untreated group (control).
TV (mm^3)=(long diameter×short diameter^2)/2
RTV=(TV on Day 29)/(TV on Day 0)
The RTVs were plotted on the indicated measurement days, and RTV changes over days in the control group, the FTD•TPI combination drug administration group, the paclitaxel administration group, and the combination administration group of the FTD•TPI combination drug and paclitaxel were compared.
The tumor growth inhibition rate (IR) on Day 29 on the basis of RTV values was calculated in accordance with the following equation.
IR (%)=[1−(mean RTV value of treated group)/(mean RTV value of control group)]×100

[3] = Paclitaxel dose finding in SC-2-bearing mice (Reference Example 2); conditions: doses 10, 20, 30 mg/kg/day on Days 1 and 8 tested
Experimental: as §1

CC(=O)O[C@H]1C(=O)[C@@]2(C)[C@H]([C@H](OC(=O)c3ccccc3)[C@]3(O)C[C@H](OC(=O)[C@H](O)[C@@H](NC(=O)c4ccccc4)c4ccccc4)C(C)=C1C3(C)C)[C@]1(OC(C)=O)CO[C@@H]1C[C@@H]2O [Paclitaxel (TXL), (−)-(1S,2S,3R,4S,5R,7S,8S,10R,13S)-4,10-diacetoxy-2-benzoyloxy-5,20-epoxy-1,7-dihydroxy-9-oxotax-11-en-13-yl(2R,3S)-3-benzoylamino-2-hydroxy-3-phenylpropionate]
mice deceased [1]: four of the six mice deceased | IR (tumor growth inhibition rate) ([2]; paclitaxel 5 mg/kg/day): 27.1% | RTV (mean ± SD) ([2]; paclitaxel 5 mg/kg/day): 44.97 ± 1.78 | IR (tumor growth inhibition rate) ([2]; paclitaxel 20 mg/kg/day): 83.6% | RTV (mean ± SD) ([2]; paclitaxel 20 mg/kg/day): 10.13 ± 2.94 | recommended dose for mice [3]: 20 mg/kg/day
